Assay [1] deals with T1, S. aureus FtsZ protein (FtsZSa) (Staphylococcus aureus, UniProt P0A031).
T1 construct: made in house; host or cells: Escherichia coli BL21DE3
T1 sequence (P0A031 1-390): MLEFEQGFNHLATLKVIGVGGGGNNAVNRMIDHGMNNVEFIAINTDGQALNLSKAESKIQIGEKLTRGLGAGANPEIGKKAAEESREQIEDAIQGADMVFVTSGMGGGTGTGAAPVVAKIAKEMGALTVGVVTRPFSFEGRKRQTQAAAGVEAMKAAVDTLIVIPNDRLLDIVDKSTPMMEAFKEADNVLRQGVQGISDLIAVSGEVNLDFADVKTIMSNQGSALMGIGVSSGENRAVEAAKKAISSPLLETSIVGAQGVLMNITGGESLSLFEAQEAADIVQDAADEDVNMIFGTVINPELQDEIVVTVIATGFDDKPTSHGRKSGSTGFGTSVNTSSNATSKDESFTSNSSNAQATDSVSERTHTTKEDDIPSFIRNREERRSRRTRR
In words: In vitro FtsZ GTPase activity (PK/LDH coupled assay). It counts as biochemical. The arrangement: Residual GTPase activity: concentration or dose not given beside the values. As to conditions: S. aureus FtsZ protein. As for the experimental part: In vitro FtsZ GTPase activity
FtsZSa and FtsZPa were expressed and purified as previously described.13,14 GTPase activity was assayed at 30°C using a pyruvate kinase–L-lactic dehydrogenase (PK/LDH) spectrophotometric coupled assay, as previously described15 with minor modification. The reaction mixture was first set up to contain 50 mM MES […]
phosphoenolpyruvate, and 4.8 μM of FtsZ. The assay was initiated by the addition of 1 mM GTP. The experiments were performed in triplicate. The inhibitory concentration that reduced the enzymatic activity by half (IC50) was determined using Prism 10. […]

Assay [2] relates to S. aureus ATCC25923. In words: MIC determination by 2-fold microdilution, resazurin method. It counts as cell-based, Staphylococcus aureus. Conditions: S. aureus ATCC25923, single drug; for MIC: Staphylococcus aureus. In general terms: Dilution methods test growth across graded concentrations, often in twofold steps.
For assay [3], the target named is T2, FtsZSa (Staphylococcus aureus, UniProt P0A031).
T2 sequence (P0A031 1-390): T1 sequence (P0A031 1-390)
In words: FtsZSa polymerization, 90° light scattering.

The target of assay [4] is T2, FtsZSa. In words: FtsZSa polymerization, sedimentation assay. As to conditions: sedimentation assay of C11 derivatives.
The subject of assay [5] is S. aureus ATCC25923. In words: Checkerboard assay of C11 with antibiotics. In kind it is cell-based. As to conditions: antibiotic combined with C11.
For assay [6], the system named is S. aureus cystic fibrosis clinical isolates. In words: MIC for CF clinical isolates. It counts as cell-based.
Assay [7] concerns mammalian tubulin. In words: Tubulin polymerization assay, fluorescence based. In kind it is biochemical. Conditions: 10 μM; DMSO control 3.78.
Assay [8] relates to S. aureus. As to conditions: cited from earlier work.
The test system of assay [9] is Mycobacterium tuberculosis. Also noted: method as in PMID 21126020. As to conditions: cited from earlier work.

Converted amounts (≈) assume the structure as drawn. Read-outs that look alike come from different tables or passages of the source. Where only a bound is given, the exact number is not on record here.

On to `COC(=O)c1ccc(CSc2ccc(-c3ccc4c(c3)OCO4)nn2)o1` [C1], for which the “Residual GTPase activity” value in assay [1] is listed as 78.5%. For the same compound, the “MIC S. aureus” value in [2] is ≥ 256 µg/mL.
Regarding `CC(O)c1ccc(C2(CNC(=O)c3ccc(C(F)(F)F)nc3)CCCC2)s1` (centres unmarked) [C2], the “Residual GTPase activity” value in [1] is listed as 35.5%. For the same compound, the “MIC S. aureus” value in assay [2] was ≥ 256 µg/mL.
The like results for `COc1ccccc1-c1cc(C(=O)NCC(N)=O)[nH]n1` [C5] were, in that order, 95.3% and ≥ 256 µg/mL.
Take `NC(=O)c1cc(OC2CN(C(=O)Nc3ccccc3F)C2)ccn1` [C6]: the “Residual GTPase activity” value in assay [1] was determined as 92.8%. Moreover, the “MIC S. aureus” value in [2] is ≥ 256 µg/mL.
In general, IC50 refers to the point on the concentration scale where inhibition reaches its midpoint. As to `COc1ccc(CC(=O)Nc2cccc(C(N)=O)c2)cc1` [C8], in [1], the 50% inhibitory concentration (IC50) turned out to be 8.4 µM and the “Residual GTPase activity” value stood at 11.8%. Besides, in [2], the “MIC S. aureus” value was ≥ 256 µg/mL.
For `Cc1ccc(-c2nnc(Nc3cccc(O)c3)c3ccccc23)cc1S(N)(=O)=O` [C9], the “Residual GTPase activity” value in assay [1] came out at 34.3%. For the same compound, in assay [2], the “MIC S. aureus” value was ≥ 256 µg/mL.
One may read the MIC as the least concentration at which growth counts as inhibited. `O=C(Oc1ccc(NC2=NS(=O)(=O)c3ccccc32)cc1)c1ccccc1` [C11.1] had an IC50 in assay [3] of 71.7 µM. In addition, the “Activity on FtsZSa polymerization” value in assay [4] is on record as “mild activity”. Further, the minimal inhibitory concentration (MIC) in assay [2] was ≥ 128 µg/mL.
Turning to `O=S1(=O)C=C(Sc2nnc(-c3ccccc3)o2)c2ccccc21` [C11.2], the midpoint of inhibition in assay [3], the IC50, lay at 23.7 µM. For the same compound, the minimal inhibitory concentration (MIC) in [2] worked out at 8 µg/mL (≈ 23.4 µM).
`O=S1(=O)N=C(Nc2nc3c(s2)CCCC3)c2ccccc21` [C11.3]: the MIC in assay [2] is ≥ 128 µg/mL.
As for `CCOc1ccc(NC(=O)CN2C(=O)c3ccccc3S2(=O)=O)cc1` [C11.4], inhibition in assay [3] was half-maximal at 41.9 µM (IC50). For the same compound, the MIC in assay [2] is ≥ 128 µg/mL.
With `O=S1(=O)N=C(Nc2nc(-c3ccccc3)cs2)c2ccccc21` [C11.5], in assay [3], it took 34.6 µM to reach half-maximal inhibition (IC50). Moreover, in assay [2], the “MIC S. aureus” value was ≥ 128 µg/mL and the MIC was ≥ 128 µg/mL.
In the case of `O=C(c1ccco1)N1CCN(C2=NS(=O)(=O)c3ccccc32)CC1` [C11.6], the minimum inhibitory concentration (MIC) in assay [2] is ≥ 128 µg/mL.
In the case of `CCc1sc(NC2=NS(=O)(=O)c3ccccc32)nc1-c1ccccc1` [C11.7], half-maximal inhibition in assay [3] (IC50) required 29.4 µM. Also, in [2], the “MIC S. aureus” value was 8 µg/mL (≈ 21.7 µM) and inhibition of growth (MIC) required 8 µg/mL (≈ 21.7 µM).
In assay [3], `Cc1occc1-c1nnc(SC2=CS(=O)(=O)c3ccccc32)o1` [C11.8] registered a 50% inhibitory concentration (IC50) of 41.6 µM. The compound further returned an MIC in [2] of 128 µg/mL (≈ 370 µM).
On to `O=S1(=O)N=C(Nc2nnc(SCc3ccccc3Cl)s2)c2ccccc21` [C11.9], for which, in [2], inhibition of growth (MIC) required 128 µg/mL (≈ 303 µM).
Same read-out and setting: the result for `O=C(CSc1nnc(NC2=NS(=O)(=O)c3ccccc32)s1)Nc1ccc(Cl)cc1` [C11.10] reads ≥ 128 µg/mL; that for `Cc1ccc(-c2nnc(SC3=CS(=O)(=O)c4ccccc43)o2)cc1` [C11.11], ≥ 128 µg/mL; that for `O=C(CN1C(=O)c2ccccc2S1(=O)=O)Nc1nc(-c2ccccc2)cs1` [C11.12], ≥ 128 µg/mL.
For the compound `CC(C)(O/N=C(\C(=O)N[C@@H]1C(=O)N2C(C(=O)[O-])=C(C[n+]3ccccc3)CS[C@H]12)c1csc(N)n1)C(=O)O` [Ceftazidime, reference compound], in [5], the “Effect of the combination with C11” value is “synergistic effect”. The same compound gave an MIC in assay [2] of 16 µg/mL (≈ 29.3 µM).
As to `CC[C@H]1OC(=O)[C@H](C)[C@@H](O[C@H]2C[C@@](C)(OC)[C@@H](O)[C@H](C)O2)[C@H](C)[C@@H](O[C@@H]2O[C@H](C)C[C@H](N(C)C)[C@H]2O)[C@](C)(O)C[C@@H](C)C(=O)[C@H](C)[C@@H](O)[C@]1(C)O` [Erythromycin, reference compound], in assay [5], the “Effect of the combination with C11” value was “additive effect”. The lowest concentration to inhibit growth in assay [2] (MIC) was 0.5 µg/mL (≈ 0.681 µM).
The like results for `CC(=O)NC[C@H]1CN(c2ccc(N3CCOCC3)c(F)c2)C(=O)O1` [Linezolid, reference compound] were, in that order, “additive effect” and 2 µg/mL (≈ 5.93 µM).
In the case of `C[C@@H](O)[C@H]1C(=O)N2C(C(=O)O)=C(S[C@@H]3CN[C@H](C(=O)N(C)C)C3)[C@H](C)[C@H]12` [Meropenem, reference compound], the MIC is 2 µg/mL (≈ 5.22 µM) in assay [6] (S. aureus BG8 MRSA, single drug); 16 µg/mL (≈ 41.7 µM) in [6] (S. aureus BG10 MRSA, single drug); 4 µg/mL (≈ 10.4 µM) in [6] (Staphylococcus aureus, MRSA, S. aureus BG6 MRSA, read-out: MIC); 2 µg/mL (≈ 5.22 µM) in assay [6] (Staphylococcus aureus, MRSA, S. aureus BG7 MRSA smv, read-out: MIC); 2 µg/mL (≈ 5.22 µM) in assay [6] (Staphylococcus aureus, MRSA, S. aureus BG8 MRSA, single drug, read-out: MIC); 16 µg/mL (≈ 41.7 µM) in assay [6] (Staphylococcus aureus, MRSA, S. aureus BG10 MRSA, single drug, read-out: MIC). Further, the MIC in assay [6] (Staphylococcus aureus, S. aureus BG1, read-out: MIC) turned out to be 0.5 µg/mL (≈ 1.3 µM); in [6] (Staphylococcus aureus, S. aureus BG2, read-out: MIC), 0.5 µg/mL (≈ 1.3 µM); in [6] (Staphylococcus aureus, S. aureus BG3, read-out: MIC), 0.25 µg/mL (≈ 0.652 µM); in assay [6] (Staphylococcus aureus, S. aureus BG4, read-out: MIC), 0.25 µg/mL (≈ 0.652 µM); in [6] (Staphylococcus aureus, S. aureus BG5, read-out: MIC) it was 0.25 µg/mL (≈ 0.652 µM); in assay [2], 0.25 µg/mL (≈ 0.652 µM). Further, the “Effect of the combination with C11” value in assay [5] was “synergistic effect”.
`CC(=O)O[C@H]1C(=O)[C@@]2(C)[C@H]([C@H](OC(=O)c3ccccc3)[C@]3(O)C[C@H](OC(=O)[C@H](O)[C@@H](NC(=O)c4ccccc4)c4ccccc4)C(C)=C1C3(C)C)[C@]1(OC(C)=O)CO[C@@H]1C[C@@H]2O` [Paclitaxel, paclitaxel, reference compound]: the “Vmax of tubulin polymerization” value in assay [7] stood at 21.45 mOD/min.
In the case of `CO[C@H]1/C=C/O[C@@]2(C)Oc3c(C)c(O)c4c(O)c(c(/C=N/N5CCN(C)CC5)c(O)c4c3C2=O)NC(=O)/C(C)=C\C=C\[C@H](C)[C@H](O)[C@@H](C)[C@@H](O)[C@@H](C)[C@H](OC(C)=O)[C@@H]1C` [Rifampicin, reference compound], the “Effect of the combination with C11” value in assay [5] is “synergistic effect”. Further, in assay [2], the minimum inhibitory concentration (MIC) turned out to be 0.03 µg/mL (≈ 0.0365 µM).
In the case of `NC(=O)c1c(F)ccc(OCc2nc3cc(C(F)(F)F)cnc3s2)c1F` [TX707], the “MIC S. aureus” value in [8] (ref 19−22) was 0.25 to 2 µg/mL.
For the compound `CN1CCC(C(=O)NC(=O)c2c(F)ccc(OCc3nc4cc(C(F)(F)F)cnc4s3)c2F)CC1` [TX709], the “MIC S. aureus” value in assay [8] (ref 19−22) is 2 to 4 µg/mL.
As to `CN(C)[C@@H]1C(O)=C(C(N)=O)C(=O)[C@@]2(O)C(O)=C3C(=O)c4c(O)cccc4[C@@](C)(O)[C@H]3C[C@@H]12` [Tetracycline, reference compound], the “Effect of the combination with C11” value in assay [5] is reported as “additive effect”. Further, in assay [2], the MIC stood at 0.5 µg/mL (≈ 1.13 µM).
On to `O=C(Oc1cc(OC(=O)c2ccc(O)c(Cl)c2)c2ccccc2c1)c1ccc(O)c(Cl)c1` [UCM53], for which, in assay [8] (ref 15−17), the “MIC S. aureus” value was 2 to 8 µg/mL.
Regarding Benzimidazole, the “MIC Mtb H3tRv” value in assay [9] is 0.39 µg/mL.

(Values after PMC11998009, “Identification of a New FtsZ Inhibitor by Virtual Screening, Mechanistic Insights, and Structure–Activity Relationship Analyses” (ACS Infectious Diseases, 2025).)
